How the values were obtained:
[1] = system: ABCG1; details: human subject, IV 500-1,000 mg/kg every 4 weeks; FIGS. 5A-5D
Protocol: (§1) A human subject was treated with 2-hydroxypropyl-beta-cyclodextrin with single-ascending doses administered intravenously every 4 weeks according to Table 1 below. In this Example, a human subject was treated with 2-hydroxypropyl-beta-cyclodextrin as in Example 2, and ABCA1 and ABCG1 mRNA levels were measured. […] ABCA1 and ABCG1 are major cellular transporters resulting in cholesterol efflux to […] or mature HDL particles. In cardiovascular disease, expression of ABC transporters correlates with plaque stability and morbidity.

[2] = system: ABCA1; details: human subject, IV 500-1,000 mg/kg every 4 weeks; FIGS. 5A-5D
Protocol: as §1

[3] = system: 24S-hydroxycholesterol and 27-hydroxycholesterol; details: human subject, IV 500-1,000 mg/kg every 4 weeks; FIGS. 4A-4C
Protocol: A human subject was treated with 2-hydroxypropyl-beta-cyclodextrin with single-ascending doses administered intravenously every 4 weeks according to Table 1 below.
In this Example, a human subject was treated with 2-hydroxypropyl-beta-cyclodextrin as in Example 2, and plasma levels of 24S-hydroxycholesterol and 27-hydroxycholesterol were measured.

[4] = human subject, single-ascending IV doses 500-1,000 mg/kg every 4 weeks; plasma pre-dose vs post-dose; FIG. 3A
Protocol: A human subject was treated with 2-hydroxypropyl-beta-cyclodextrin with single-ascending doses administered intravenously every 4 weeks according to Table 1 below. For each dose, whole blood was collected pre-dose, post-dose (line flush), 1 hour post-dose, and 24 hours post-dose. Plasma was separated from the whole blood and subjected to a cholesterol crystal dissolution capacity (CCDC) assay using techniques similar to those described in the literature. The CCDC assay measures the ability of a sample to dissolve cholesterol crystals.

[5] = pre-dose blood plasma incubated ex vivo with the substance; FIG. 3B
Protocol: For each dose, whole blood was collected pre-dose, post-dose (line flush), 1 hour post-dose, and 24 hours post-dose. Plasma was separated from the whole blood and subjected to a cholesterol crystal dissolution capacity (CCDC) assay using techniques similar to those described in the literature. The CCDC assay measures the ability of a sample to dissolve cholesterol crystals. Blood plasma pre-dose was also incubated ex vivo with 2-hydroxypropyl-beta-cyclodextrin and the ability of the plasma to dissolve cholesterol crystals was measured.

## 2-hydroxypropyl-beta-cyclodextrin
[1]
  ABCG1 mRNA levels: increased mRNA levels
[2]
  ABCA1 mRNA levels: increased mRNA levels
[3]
  plasma level of 24S-hydroxycholesterol: increased plasma levels
  plasma level of 27-hydroxycholesterol: increased plasma levels
  total cholesterol levels: remained stable
[4]
  capability of blood plasma to dissolve cholesterol crystals (CCDC): increased capability of blood plasma to dissolve cholesterol crystals
[5]
  capacity of plasma to dissolve cholesterol crystals (CCDC): increased capacity to dissolve cholesterol crystals
